# Results from publication PMC12154426, “TPP-Based Nanovesicles Kill MDR Neuroblastoma Cells and Induce Moderate ROS Increase, While Exerting Low Toxicity Towards Primary Cell Cultures: An In Vitro Study” (International Journal of Molecular Sciences, 2025).
# Experiments:
# HTLA 230 [1] = assay: DAPI and Annexin-V/PI staining (necrosis/apoptosis), HTLA 230; format: cell-based, human; conditions: 0.5 µM, 24 h
# Excerpt: Although it has been reported that diverse therapeutic approaches to counteract cancer, including chemotherapeutic drugs, gamma irradiation, suicide genes, or immunotherapy, are mediated through the induction of apoptosis, also necrosis, as well as other forms of cell death, that are not classified so far, may be triggered by anticancer therapies. Here, to evaluate if BPPB induced apoptosis or necrosis, both NB cell populations were labelled with Annexin-V-FITC/propidium iodide (PI) and analysed by confocal fluorescence microscopy, as reported in the literature. This is a standard procedure to monitor the progression of apoptosis and the possible presence of necrosis. […]
# After the treatment, cells were washed with PBS and stained with the fluorescent DNA dye DAPI (1 µg/mL) for 30 min. After additional washing, the images were immediately acquired in the fluorescence mode using a Nikon AX R confocal microscope equipped with a PLAN APO 20× (Nikon Europe, B.V., Amstelveen, The Netherlands).
# Apoptotic and necrotic cells were analysed, as described in Marengo et al.. […] After staining, the images were immediately acquired in fluorescence mode using a Nikon AX R confocal microscope equipped with a PLAN APO 20× (Nikon Europe, B.V., Amstelveen, The Netherlands).
# HTLA 230 [2] = assay: DCFH assay of ROS (H2O2) production, HTLA 230; format: cell-based, human; conditions: for highest value of DCFH-positive cells: normalized for protein content, control = 1
# Excerpt: It has been reported that the administration of TPP-based compounds, including TPP-based bola amphiphilic nanovesicles such as BPPB, induce ROS overproduction, thus causing oxidative stress (OS), which has been widely reported to be involved in the anticancer effect of several chemotherapeutic drugs, including etoposide, doxorubicin [38], and cisplatin [39]. […] On the contrary, the role of ROS was scarcely present in PLX-resistant CMM cells exposed to the same concentrations of BPPB [13]. With these considerations, we evaluated ROS levels also in NB cells treated with BPPB, since this experiment would have been particularly helpful to understand whether (i) these nanovesicles’ preparation exerts its cytotoxic action on HTLA 230 and ER cells through ROS production, as in PLX-sensitive CMM cells; or (ii) the resistance acquired by HTLA ER based on high levels of antioxidants, following chronic treatment with etoposide, conferred resistance also to a preparation based on the use of nanovesicles (BPPBs). Moreover, the evaluation of ROS levels can be an indirect method to ascertain and confirm the presence of apoptosis, since as reported, low levels of ROS induce apoptosis and high levels induce necrosis.Therefore, to investigate the pro-oxidant action of BPPB also in HTLA 230 and HTLA ER NB cells, ROS levels were evaluated in both NB cell populations exposed for 24–72 h to increasing concentrations (0.1–2 µM) of BPPB using the DCFH essay (Figure 4). The results were reported as a percentage of cells positive to DCFH normalized for protein content. Raw fluorescence data are, in fact, not applicable since an increase in fluorescence could be due to a high number of cells but also to an increased production of H2O2 induced by the treatments. This is the reason why it is necessary to normalize the fluorescence data to the protein content. Other cellular assays measuring oxidative damage, including lipid peroxidation or protein carbonylation, are likely too complex for low-tier early hazard assessment or hazard screening. Conversely, the cellular DCFH assay is a simpler and widely used alternative, which measures intracellular ROS production by forming a fluorescent product (DCF) upon oxidation by free radicals produced by cells.
# The production of H2O2 was evaluated using 2′-7′-dichlorofluorescein-diacetate (DCFH-DA; Merk Life Science S.r.l. Milan, Italy), as previously reported. Briefly, NB cells (10^4 cells/well) were seeded in 96-well plates (Corning) and treated. Then, cells were stained with 2′-7′ di-chloro-fluorescein-diacetate (DCFH-DA; Sigma-Aldrich) and incubated with 90% DMSO for an additional 10 min in the dark. The generated fluorescence intensity was monitored with a Perkin Elmer fluorometer (Perkin Elmer Life and Analytical Sciences, Shelton, WA, USA) at 485/530 nm excitation/emission. Values were normalized to the protein content.
smiles,measurement,setting,value
"c1ccc([P+](CCCCCCCCCCCC[P+](c2ccccc2)(c2ccccc2)c2ccccc2)(c2ccccc2)c2ccccc2)cc1 [BPPB, 1,1-(1,12-dodecanediyl)-bis-[1,1,1]-triphenyl phosphonium di-bromide]",apoptosis (Annexin V-FITC / PI labelling),HTLA 230 [1],marked apoptosis
same,necrosis (DAPI labelling),HTLA 230 [1],seemed to induce the necrosis
same,concentration giving significant increase in ROS levels,HTLA 230 [2]; 24 h,≥ 0.5 µM
same,highest value of DCFH-positive cells,HTLA 230 [2]; 24 h,2.96
same,increase in ROS with respect to the control,HTLA 230 [2]; 24 h exposure,> 3 times
same,average ROS production in HTLA 230 higher than in HTLA ER,HTLA 230 [2]; 48 h,1.3 times
same,concentration giving significant increase in ROS levels,HTLA 230 [2]; 48 h,≥ 0.5 µM
same,highest value of DCFH-positive cells,HTLA 230 [2]; 48 h,3.05
same,average ROS production in HTLA 230 higher than in HTLA ER,HTLA 230 [2]; 72 h,1.4 times
same,concentration giving significant increase in ROS levels,HTLA 230 [2]; 72 h,≥ 0.25 µM
same,highest value of DCFH-positive cells,"HTLA 230 [2]; 72 h, highest doses",5.8
same,more efficient in inducing ROS overproduction than TiO2-Ta nanoparticles,"HTLA 230 [2]; HTLA 230 and HTLA ER, 24 h",9.4–23.4 fold
